Experimental data taken from patent US6156700A, “3-(1,2-Benzisothiazol- and isoxazol-5-yl)-2,4(1H,3H)-pyrimidinedione or thione and 3-(1,2-benzisothiazol- and isoxazol-5-yl)-4(3H)-pyrimidinone or thione herbicidal agents” (American Cyanmid Company, priority 1998, dated 2000).

Columns and labels:
[1] = tested on: GALAP; assay: Postemergence herbicidal evaluation; type: in vivo
[2] = tested on: ZEAMX; assay: Preemergence herbicidal evaluation; type: in vivo; design: scale not given here
Method: (§1) The preemergence and postemergence herbicidal properties of certain compounds of the present invention are compared with certain compounds disclosed in U.S. Pat. Nos. 5,484,763 and 5,523,278. The evaluations are performed as described in Examples 185 and 186. Data in Tables V and VI are reported by the compound number given in Example 185 for the compounds of this invention or by comparative compound letter for the compounds disclosed in U.S. Pat. Nos. 5,484,763 and 5,523,278.

[3] = tested on: AMBEL; assay: Preemergence herbicidal evaluation; type: in vivo; design: scale not given here
Method: as §1

[4] = tested on: GALAP; assay: Preemergence herbicidal evaluation; type: in vivo; design: scale not given here
Method: as §1

[5] = tested on: ECHCG; assay: Preemergence herbicidal evaluation; type: in vivo; design: scale not given here
Method: as §1

[6] = tested on: IPOSS; assay: Preemergence herbicidal evaluation; type: in vivo; design: scale not given here
Method: as §1

[7] = tested on: CHEAL; assay: Preemergence herbicidal evaluation; type: in vivo; design: scale not given here
Method: as §1

[8] = tested on: GLXMAW; assay: Preemergence herbicidal evaluation; type: in vivo; design: scale not given here
Method: as §1

[9] = tested on: SETVI; assay: Preemergence herbicidal evaluation; type: in vivo; design: scale not given here
Method: as §1

[10] = tested on: ABUTH; assay: Preemergence herbicidal evaluation; type: in vivo; design: scale not given here
Method: as §1

[11] = tested on: CASOB; assay: Preemergence herbicidal evaluation; type: in vivo; design: scale not given here
Method: as §1

[12] = tested on: SETVI; assay: Postemergence herbicidal evaluation; type: in vivo
[13] = tested on: ORYSAT; assay: Postemergence herbicidal evaluation; type: in vivo, Oryza sativa
[14] = tested on: AMBEL; assay: Postemergence herbicidal evaluation; type: in vivo
[15] = tested on: CASOB; assay: Postemergence herbicidal evaluation; type: in vivo
[16] = tested on: ABUTH; assay: Postemergence herbicidal evaluation; type: in vivo
[17] = tested on: CHEAL; assay: Postemergence herbicidal evaluation; type: in vivo
[18] = tested on: ORYSAT; assay: Preemergence herbicidal evaluation; type: in vivo, Oryza sativa; design: scale not given here
Method: as §1

[19] = tested on: IPOSS; assay: Postemergence herbicidal evaluation; type: in vivo
[20] = tested on: ZEAMX; assay: Postemergence herbicidal evaluation; type: in vivo
[21] = tested on: ECHCG; assay: Postemergence herbicidal evaluation; type: in vivo
[22] = tested on: GLXMAW; assay: Postemergence herbicidal evaluation; type: in vivo

## O=C1C2=C(CCCC2)C(=O)N1c1ccc2sncc2c1 [C]
[1]; 0.0157-0.0160 kg/ha
  herbicidal effect rating: 2.0
[1]; 0.0313-0.0320 kg/ha
  herbicidal effect rating: 3.0
[1]; 0.0625-0.0640 kg/ha
  herbicidal effect rating: 5.0
[1]; 0.1250 kg/ha
  herbicidal effect rating: 6.0
[1]; 0.2500 kg/ha
  herbicidal effect rating: 6.0
[1]; 0.5000 kg/ha
  herbicidal effect rating: 9.0
[2]; 0.0313-0.0320 kg/ha
  herbicidal effect rating: 0.0
[2]; 0.0620-0.0630 kg/ha
  herbicidal effect rating: 0.0
[2]; 0.1250 kg/ha
  herbicidal effect rating: 0.0
[2]; 0.2500 kg/ha
  herbicidal effect rating: 0.0
[2]; 0.5000 kg/ha
  herbicidal effect rating: 0.0
[3]; 0.0313-0.0320 kg/ha
  herbicidal effect rating: 3.0
[3]; 0.0620-0.0630 kg/ha
  herbicidal effect rating: 3.0
[3]; 0.1250 kg/ha
  herbicidal effect rating: 2.0
[3]; 0.2500 kg/ha
  herbicidal effect rating: 2.0
[3]; 0.5000 kg/ha
  herbicidal effect rating: 6.0
[4]; 0.0620-0.0630 kg/ha
  herbicidal effect rating: 2.0
[4]; 0.1250 kg/ha
  herbicidal effect rating: 2.0
[4]; 0.2500 kg/ha
  herbicidal effect rating: 6.0
[4]; 0.5000 kg/ha
  herbicidal effect rating: 7.5
[5]; 0.0313-0.0320 kg/ha
  herbicidal effect rating: 0.0
[5]; 0.0620-0.0630 kg/ha
  herbicidal effect rating: 0.0
[5]; 0.1250 kg/ha
  herbicidal effect rating: 2.0
[5]; 0.2500 kg/ha
  herbicidal effect rating: 4.0
[5]; 0.5000 kg/ha
  herbicidal effect rating: 6.0
[6]; 0.0313-0.0320 kg/ha
  herbicidal effect rating: 0.0
[6]; 0.0620-0.0630 kg/ha
  herbicidal effect rating: 0.0
[6]; 0.1250 kg/ha
  herbicidal effect rating: 0.0
[6]; 0.2500 kg/ha
  herbicidal effect rating: 0.0
[6]; 0.5000 kg/ha
  herbicidal effect rating: 2.0
[7]; 0.0313-0.0320 kg/ha
  herbicidal effect rating: 3.0
[7]; 0.0620-0.0630 kg/ha
  herbicidal effect rating: 4.0
[7]; 0.1250 kg/ha
  herbicidal effect rating: 5.0
[7]; 0.2500 kg/ha
  herbicidal effect rating: 3.0
[7]; 0.5000 kg/ha
  herbicidal effect rating: 7.0
[8]; 0.0313-0.0320 kg/ha
  herbicidal effect rating: 0.0
[8]; 0.0620-0.0630 kg/ha
  herbicidal effect rating: 0.0
[8]; 0.1250 kg/ha
  herbicidal effect rating: 0.0
[8]; 0.2500 kg/ha
  herbicidal effect rating: 0.0
[8]; 0.5000 kg/ha
  herbicidal effect rating: 0.0
[9]; 0.0313-0.0320 kg/ha
  herbicidal effect rating: 0.0
[9]; 0.0620-0.0630 kg/ha
  herbicidal effect rating: 0.0
[9]; 0.1250 kg/ha
  herbicidal effect rating: 2.0
[9]; 0.2500 kg/ha
  herbicidal effect rating: 4.0
[9]; 0.5000 kg/ha
  herbicidal effect rating: 5.0
[10]; 0.0313-0.0320 kg/ha
  herbicidal effect rating: 0.0
[10]; 0.0620-0.0630 kg/ha
  herbicidal effect rating: 2.0
[10]; 0.1250 kg/ha
  herbicidal effect rating: 4.0
[10]; 0.2500 kg/ha
  herbicidal effect rating: 9.0
[10]; 0.5000 kg/ha
  herbicidal effect rating: 9.0
[11]; 0.0313-0.0320 kg/ha
  herbicidal effect rating: 1.0
[11]; 0.0620-0.0630 kg/ha
  herbicidal effect rating: 0.0
[11]; 0.1250 kg/ha
  herbicidal effect rating: 0.0
[11]; 0.2500 kg/ha
  herbicidal effect rating: 0.0
[11]; 0.5000 kg/ha
  herbicidal effect rating: 5.5
[12]; 0.0157-0.0160 kg/ha
  herbicidal effect rating: 0.0
[12]; 0.0313-0.0320 kg/ha
  herbicidal effect rating: 0.0
[12]; 0.0625-0.0640 kg/ha
  herbicidal effect rating: 0.0
[12]; 0.1250 kg/ha
  herbicidal effect rating: 0.0
[12]; 0.2500 kg/ha
  herbicidal effect rating: 0.0
[12]; 0.5000 kg/ha
  herbicidal effect rating: 2.0
[13]; 0.0157-0.0160 kg/ha
  herbicidal effect rating: 2.0
[13]; 0.0313-0.0320 kg/ha
  herbicidal effect rating: 2.0
[13]; 0.0625-0.0640 kg/ha
  herbicidal effect rating: 2.5
[13]; 0.1250 kg/ha
  herbicidal effect rating: 2.5
[13]; 0.2500 kg/ha
  herbicidal effect rating: 3.0
[13]; 0.5000 kg/ha
  herbicidal effect rating: 4.5
[14]; 0.0157-0.0160 kg/ha
  herbicidal effect rating: 6.0
[14]; 0.0313-0.0320 kg/ha
  herbicidal effect rating: 6.0
[14]; 0.0625-0.0640 kg/ha
  herbicidal effect rating: 7.0
[14]; 0.1250 kg/ha
  herbicidal effect rating: 8.0
[14]; 0.2500 kg/ha
  herbicidal effect rating: 7.0
[14]; 0.5000 kg/ha
  herbicidal effect rating: 9.0
[15]; 0.0157-0.0160 kg/ha
  herbicidal effect rating: 3.0
[15]; 0.0313-0.0320 kg/ha
  herbicidal effect rating: 8.0
[15]; 0.0625-0.0640 kg/ha
  herbicidal effect rating: 7.0
[15]; 0.1250 kg/ha
  herbicidal effect rating: 7.0
[15]; 0.2500 kg/ha
  herbicidal effect rating: 7.0
[15]; 0.5000 kg/ha
  herbicidal effect rating: 9.0
[16]; 0.0157-0.0160 kg/ha
  herbicidal effect rating: 8.0
[16]; 0.0313-0.0320 kg/ha
  herbicidal effect rating: 9.0
[16]; 0.0625-0.0640 kg/ha
  herbicidal effect rating: 9.0
[16]; 0.1250 kg/ha
  herbicidal effect rating: 9.0
[16]; 0.2500 kg/ha
  herbicidal effect rating: 9.0
[16]; 0.5000 kg/ha
  herbicidal effect rating: 9.0
[17]; 0.0157-0.0160 kg/ha
  herbicidal effect rating: 0.0
[17]; 0.0313-0.0320 kg/ha
  herbicidal effect rating: 3.0
[17]; 0.0625-0.0640 kg/ha
  herbicidal effect rating: 3.0
[17]; 0.1250 kg/ha
  herbicidal effect rating: 3.0
[17]; 0.2500 kg/ha
  herbicidal effect rating: 4.0
[17]; 0.5000 kg/ha
  herbicidal effect rating: 5.0
[18]; 0.0313-0.0320 kg/ha
  herbicidal effect rating: 1.0
[18]; 0.0620-0.0630 kg/ha
  herbicidal effect rating: 2.0
[18]; 0.1250 kg/ha
  herbicidal effect rating: 2.0
[18]; 0.2500 kg/ha
  herbicidal effect rating: 4.0
[18]; 0.5000 kg/ha
  herbicidal effect rating: 4.0
[19]; 0.0157-0.0160 kg/ha
  herbicidal effect rating: 2.0
[19]; 0.0313-0.0320 kg/ha
  herbicidal effect rating: 6.0
[19]; 0.0625-0.0640 kg/ha
  herbicidal effect rating: 5.0
[19]; 0.1250 kg/ha
  herbicidal effect rating: 7.0
[19]; 0.2500 kg/ha
  herbicidal effect rating: 6.0
[19]; 0.5000 kg/ha
  herbicidal effect rating: 7.0
[20]; 0.0157-0.0160 kg/ha
  herbicidal effect rating: 1.5
[20]; 0.0313-0.0320 kg/ha
  herbicidal effect rating: 2.0
[20]; 0.0625-0.0640 kg/ha
  herbicidal effect rating: 1.5
[20]; 0.1250 kg/ha
  herbicidal effect rating: 1.5
[20]; 0.2500 kg/ha
  herbicidal effect rating: 2.5
[20]; 0.5000 kg/ha
  herbicidal effect rating: 3.0
[21]; 0.0157-0.0160 kg/ha
  herbicidal effect rating: 0.0
[21]; 0.0313-0.0320 kg/ha
  herbicidal effect rating: 0.0
[21]; 0.0625-0.0640 kg/ha
  herbicidal effect rating: 0.0
[21]; 0.1250 kg/ha
  herbicidal effect rating: 0.0
[21]; 0.2500 kg/ha
  herbicidal effect rating: 0.0
[21]; 0.5000 kg/ha
  herbicidal effect rating: 0.0
[22]; 0.0157-0.0160 kg/ha
  herbicidal effect rating: 1.0
[22]; 0.0313-0.0320 kg/ha
  herbicidal effect rating: 1.5
[22]; 0.0625-0.0640 kg/ha
  herbicidal effect rating: 3.0
[22]; 0.1250 kg/ha
  herbicidal effect rating: 2.0
[22]; 0.2500 kg/ha
  herbicidal effect rating: 2.5
[22]; 0.5000 kg/ha
  herbicidal effect rating: 4.5
